A word on the IC50: it is the midpoint of a concentration-inhibition curve. A high value points to weaker potency in that assay.

The source made the active and inactive calls. The rule behind the calls is not given here.

The subject of series [1] is SH-SY5Y. Put plainly: Neuroprotective activity in human SH-SY5Y cells assessed as protection against H2O2-induced oxidative stress incubated for 1 hr prior to H2O2-challenge measured after 12 hrs by MTT assay. Type of series: functional, cell-based. (In general: Tetrazolium assays rely on reduction of a dye to a coloured formazan, in cell work by metabolically active cells.)

A further series concerns the target Acetylcholinesterase (Electrophorus electricus, UniProt O42275). Put plainly: Inhibition of electric eel acetylcholine esterase using […] as substrate incubated for 5 mins prior to substrate addition measured every 3 mins by Ellman's assay. (In general: DTNB colorimetry detects thiols as they appear.)
In series [2] the test system is SH-SY5Y. Nature of the series: Neuroprotective activity in human SH-SY5Y cells assessed as protection against H2O2-induced oxidative stress at 10 uM incubated for 1 hr prior to H2O2-challenge measured after 12 hrs by MTT assay. It is filed as functional.
Another series concerns the target Cholinesterase (Equus caballus, UniProt P81908).
In series [3] the test system is SH-SY5Y. Put plainly: Neuroprotective activity in human SH-SY5Y cells assessed as protection against H2O2-induced oxidative stress at 3 uM incubated for 1 hr prior to H2O2-challenge measured after 12 hrs by MTT assay. It is filed as functional.
In series [4] the test system is SH-SY5Y. Put plainly: Neuroprotective activity in human SH-SY5Y cells assessed as protection against H2O2-induced oxidative stress at 1 uM incubated for 1 hr prior to H2O2-challenge measured after 12 hrs by MTT assay. Type of series: functional.
The test system of series [5] is SH-SY5Y. Nature of the series: Neuroprotective activity in human SH-SY5Y cells assessed as protection against H2O2-induced oxidative stress at 30 uM incubated for 1 hr prior to H2O2-challenge measured after 12 hrs by MTT assay. Type of series: functional.
Series [6] relates to Rattus norvegicus. Put plainly: Hepatotoxicity in Sprague-Dawley rat assessed increase in alanine aminotransferase level in serum at 6 umol/100g of body weight, ip up to 120 hrs. It is filed as toxicity, organism-based. The settings on record: in vivo.
The subject of series [7] is Rattus norvegicus. Put plainly: Hepatotoxicity in Sprague-Dawley rat assessed increase in aminotransferase level in serum at 6 umol/100g of body weight, ip up to 120 hrs. To be noted: in vivo. Type of series: toxicity, organism-based.
In series [8] the test system is Hippocampus. Put plainly: Neuroprotective activity in Sprague-Dawley rat hippocampal CA1 region assessed as enhancement of high frequency stimulation-induced long-term potentiation by measuring field excitatory postsynaptic potentials at 50 uM incubated for 5 mins prior to HFS-induction measured after 10 mins by electrophysiology assay (reference value: 133.7 +/- 3.6%). Type of series: functional.

Series [9] concerns the target Acetylcholinesterase (Electrophorus electricus) (UniProt O42275). Nature of the series: Time dependent inhibition of electric eel acetylcholine esterase using […] as substrate incubated for 5 mins prior to substrate addition measured for 2 to 40 mins by Ellman's assay.
Series [10] shares this target. Put plainly: Mixed type inhibition of electric eel acetylcholine esterase using […] as substrate by Lineweaver-Burk reciprocal plot analysis.
The test system of series [11] is Hippocampus. Nature of the series: Neuroprotective activity in Sprague-Dawley rat hippocampal CA1 region assessed as enhancement of high frequency stimulation-induced long-term potentiation by measuring field excitatory postsynaptic potentials incubated for 5 mins prior to HFS-induction measured after 10 mins by electrophysiology assay (reference value: […] +/- 5.3%). It is filed as functional.

Series [12] deals with Rattus norvegicus. Put plainly: Neuroprotective activity in Sprague-Dawley rat assessed as enhancement of high frequency stimulation-induced long-term potentiation in hippocampus at 50 uM, icv after 3 hrs (reference value: 126 +/- 3.6%). Type of series: functional.
Series [13] deals with Hippocampus. Nature of the series: Neuroprotective activity in Sprague-Dawley rat hippocampal CA1 region assessed as enhancement of high frequency stimulation-induced long-term potentiation by measuring field excitatory postsynaptic potentials at 50 uM incubated for 5 mins prior to HFS-induction measured after 10 mins by electrophysiology assay (reference value: 134.3 +/- 3.9%). Type of series: functional.

Sequence of Cholinesterase (P81908 whole entry): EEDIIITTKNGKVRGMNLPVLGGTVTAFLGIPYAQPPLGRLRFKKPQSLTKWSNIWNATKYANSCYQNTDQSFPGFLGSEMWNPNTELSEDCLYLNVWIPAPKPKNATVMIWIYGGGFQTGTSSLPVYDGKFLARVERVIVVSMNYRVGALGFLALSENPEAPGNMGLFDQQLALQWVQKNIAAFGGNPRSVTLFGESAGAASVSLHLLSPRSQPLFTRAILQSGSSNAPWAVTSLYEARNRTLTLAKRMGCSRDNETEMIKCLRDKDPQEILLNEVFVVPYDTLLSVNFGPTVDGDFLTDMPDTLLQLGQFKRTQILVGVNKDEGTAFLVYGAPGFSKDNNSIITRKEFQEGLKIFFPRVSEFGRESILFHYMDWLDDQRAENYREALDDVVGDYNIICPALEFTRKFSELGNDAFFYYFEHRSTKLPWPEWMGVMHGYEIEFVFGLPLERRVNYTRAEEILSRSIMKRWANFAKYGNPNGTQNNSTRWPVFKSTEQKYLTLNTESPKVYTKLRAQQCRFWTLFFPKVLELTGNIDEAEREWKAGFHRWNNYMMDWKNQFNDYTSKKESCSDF
Sequence of Acetylcholinesterase (O42275 whole entry): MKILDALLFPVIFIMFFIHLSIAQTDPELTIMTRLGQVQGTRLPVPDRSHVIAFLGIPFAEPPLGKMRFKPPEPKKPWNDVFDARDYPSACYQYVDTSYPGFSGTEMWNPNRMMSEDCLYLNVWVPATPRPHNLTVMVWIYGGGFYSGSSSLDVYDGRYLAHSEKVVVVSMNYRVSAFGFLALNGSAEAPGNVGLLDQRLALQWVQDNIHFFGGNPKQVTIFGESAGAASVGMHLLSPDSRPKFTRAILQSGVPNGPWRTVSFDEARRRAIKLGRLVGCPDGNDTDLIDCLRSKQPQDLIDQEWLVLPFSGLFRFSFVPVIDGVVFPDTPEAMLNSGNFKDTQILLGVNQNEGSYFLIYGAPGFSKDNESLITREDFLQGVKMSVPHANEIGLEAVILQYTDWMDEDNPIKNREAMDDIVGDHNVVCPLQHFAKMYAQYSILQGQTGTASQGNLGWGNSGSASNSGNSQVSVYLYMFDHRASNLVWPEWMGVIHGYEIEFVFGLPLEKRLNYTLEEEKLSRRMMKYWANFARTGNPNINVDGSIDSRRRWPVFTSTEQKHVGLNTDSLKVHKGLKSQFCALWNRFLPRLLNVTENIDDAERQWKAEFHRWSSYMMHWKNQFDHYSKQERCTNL
Sequence of Acetylcholinesterase (Electrophorus electricus) (O42275 24-633 limits assumed): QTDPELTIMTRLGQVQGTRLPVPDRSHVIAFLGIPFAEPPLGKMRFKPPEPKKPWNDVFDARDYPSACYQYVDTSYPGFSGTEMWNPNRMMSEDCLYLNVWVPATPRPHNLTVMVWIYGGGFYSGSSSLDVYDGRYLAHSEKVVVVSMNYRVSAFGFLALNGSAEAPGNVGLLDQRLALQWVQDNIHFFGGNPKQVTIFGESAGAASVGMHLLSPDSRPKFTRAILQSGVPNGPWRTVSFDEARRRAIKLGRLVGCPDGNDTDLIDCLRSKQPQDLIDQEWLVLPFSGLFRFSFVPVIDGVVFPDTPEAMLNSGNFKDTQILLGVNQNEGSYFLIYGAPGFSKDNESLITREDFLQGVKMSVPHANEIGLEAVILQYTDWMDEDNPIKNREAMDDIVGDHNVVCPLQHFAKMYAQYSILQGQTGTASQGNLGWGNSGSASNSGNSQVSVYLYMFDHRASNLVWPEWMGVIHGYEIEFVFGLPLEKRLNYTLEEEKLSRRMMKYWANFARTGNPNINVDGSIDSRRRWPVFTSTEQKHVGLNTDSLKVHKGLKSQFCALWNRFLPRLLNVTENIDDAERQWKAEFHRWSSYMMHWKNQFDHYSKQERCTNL

For the compound `CC(=O)SCCC(=O)NCCCCNc1c2c(nc3ccccc13)CCCC2`, the Activity entry is “Dose-dependent effect” with SH-SY5Y [1]; 43.6% with SH-SY5Y [2]; 30.1% with SH-SY5Y [3]; 21.7% with SH-SY5Y [4]; 56.5% in the series on SH-SY5Y [5]. For the same compound, the IC50 against Acetylcholinesterase is 7240 nM; on Cholinesterase, 155 nM.

As to `O=C(CCS)NCCCNc1c2c(nc3ccccc13)CCCC2`, the Activity entry in the series with Rattus norvegicus [6] was “Non-toxic”; in the series with Rattus norvegicus [7], “Non-toxic”; in the series on SH-SY5Y [2] it was 16.7%; with SH-SY5Y [3], 22%; in the series with Hippocampus [8] it was 160.8%; with SH-SY5Y [4] it was 45.9%. In the series with SH-SY5Y [5], the Activity came to 34%. In addition, the IC50 against Acetylcholinesterase is 6030 nM; against Cholinesterase it was 182 nM.

With `CC(=O)SCCC(=O)NCCCCCCNc1c2c(nc3cc(Cl)ccc13)CCCC2`, the Activity entry in the series on SH-SY5Y [1] is “Dose-dependent effect”; in the series on SH-SY5Y [2] it was 28.5%; with SH-SY5Y [3], 17.1%; in the series on SH-SY5Y [4], 8.1%; with SH-SY5Y [5], 34%. Moreover, the inhibition result in [9] was “inactive”. Also, the values for the concentration for half-maximal inhibition (IC50) against Acetylcholinesterase and on Cholinesterase were 42.7 nM and 91.2 nM, respectively. In addition, the inhibition entry in series [10] was “Active”.

As to `CC(=O)SCCC(=O)NCCCNc1c2c(nc3ccccc13)CCCC2`, the Activity result in the series with SH-SY5Y [1] was “Dose-dependent effect”; in the series with Rattus norvegicus [6] it was “Non-toxic”; with Rattus norvegicus [7], “Non-toxic”; in the series on SH-SY5Y [2], 38.2%; with SH-SY5Y [3] it was 35.9%; in the series on SH-SY5Y [4], 32.4%. Also, the figures for the Activity with Hippocampus [11] and in the series on SH-SY5Y [5] were 136.2% and 50.6%, respectively. For the same compound, the IC50 on Acetylcholinesterase was 1740 nM; on Cholinesterase it was 229 nM.

For `O=C(CCS)NCCCCCCNc1c2c(nc3cc(Cl)ccc13)CCCC2`, the Activity in the series on Rattus norvegicus [12] is 149%; in the series with Hippocampus [13] it was 157.1%; in the series with SH-SY5Y [2], 24.5%; with SH-SY5Y [3], 27.2%; with SH-SY5Y [4], 52.3%; with SH-SY5Y [5] it was 37.8%. Besides, the IC50 on Acetylcholinesterase and on Cholinesterase was 178 nM in each case.

As to `Cc1c(C)c2c(c(C)c1O)CCC(C)(C(=O)O)O2` (stereo unspecified) [TROLOX], the Activity with SH-SY5Y [2] turned out to be 44.2%; in the series on SH-SY5Y [5], 59.1%.

With `O=C(CCS)NCCCCNc1c2c(nc3ccccc13)CCCC2`, the figures for the half-inhibitory concentration (IC50) at Acetylcholinesterase and against Cholinesterase were 8320 nM and 129 nM, respectively. Moreover, the Activity in the series with SH-SY5Y [2] is listed as 21.5%; with SH-SY5Y [3], 5.8%; with SH-SY5Y [4] it was 23.8%; in the series with SH-SY5Y [5] it was 38.2%.

The values are drawn from ChEMBL document CHEMBL2034917, “Multifunctional mercapto-tacrine derivatives for treatment of age-related neurodegenerative diseases” (J Med Chem, 2012).
